Test results from PMC10227015, “From a drug repositioning to a structure-based drug design approach to tackle acute lymphoblastic leukemia” (Nature Communications, 2023).
Values joined by “and” are separate entries in the source; they are usually repeats but may differ in a detail not shown here. Identical values can stand only once.

What was measured:
MAPKAPK2 = molecular target: T1, MAPKAPK2 (Homo sapiens, UniProt P49137); experiment: KINOMEscan competition binding; details: OR0642 1 µM; read-out: %Control
T1 construct: purchased Eurofins DiscoverX (KINOMEscan scanEDGE 97)
Procedure: (§1) Kinome profiling was provided by Eurofins DiscoverX Corporation. Determination of the % control activity for 97 kinases was obtained through an active site-directed competition binding assay that quantitatively measure interactions between compound and kinases. OR0642 was used at 1 μM.
(§2) Supplementary Table 3. KINOMEscan™ Profiling of OR0642. Competition binding assay to quantitatively measure interactions between OR0642 (1 µM) and 97 human kinases and disease relevant mutant variants.
(§3) Target Gene Symbol %Control Target Gene Symbol %Control […]

p38-beta = molecular target: T2, p38-beta (Homo sapiens, UniProt Q15759); experiment: KINOMEscan competition binding; details: OR0642 1 µM; read-out: %Control
T2 construct: purchased Eurofins DiscoverX (KINOMEscan scanEDGE 97)
Procedure: as §1, §2, §3

YANK3 = molecular target: T3, YANK3 (Homo sapiens, UniProt Q86UX6); experiment: KINOMEscan competition binding; details: OR0642 1 µM; read-out: %Control
T3 construct: purchased Eurofins DiscoverX (KINOMEscan scanEDGE 97)
Procedure: as §1, §2, §3

[1] = molecular target: T4, RSK2(Kin.Dom.1-N-terminal) (Homo sapiens, UniProt P51812); experiment: KINOMEscan competition binding; details: OR0642 1 µM; read-out: %Control
T4 construct: RSK2(Kin.Dom.1-N-terminal); purchased Eurofins DiscoverX (KINOMEscan scanEDGE 97)
T4 sequence (P51812 1-397 limits assumed): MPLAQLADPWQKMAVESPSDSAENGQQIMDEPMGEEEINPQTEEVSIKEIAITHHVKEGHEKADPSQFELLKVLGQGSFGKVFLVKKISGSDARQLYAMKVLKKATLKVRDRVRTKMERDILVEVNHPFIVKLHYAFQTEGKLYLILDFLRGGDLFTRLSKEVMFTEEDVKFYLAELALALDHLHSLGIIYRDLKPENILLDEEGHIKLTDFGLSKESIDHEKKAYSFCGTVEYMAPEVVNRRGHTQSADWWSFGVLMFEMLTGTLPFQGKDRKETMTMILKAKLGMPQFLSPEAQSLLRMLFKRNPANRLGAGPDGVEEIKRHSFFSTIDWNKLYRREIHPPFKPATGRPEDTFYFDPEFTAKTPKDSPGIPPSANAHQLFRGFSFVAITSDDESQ
Procedure: as §1, §2, §3

PLK3 = molecular target: T5, PLK3 (Homo sapiens, UniProt Q9H4B4); experiment: KINOMEscan competition binding; details: OR0642 1 µM; read-out: %Control
T5 construct: purchased Eurofins DiscoverX (KINOMEscan scanEDGE 97)
Procedure: as §1, §2, §3

VEGFR2 = molecular target: T6, VEGFR2 (Homo sapiens, UniProt P35968); experiment: KINOMEscan competition binding; details: OR0642 1 µM; read-out: %Control
T6 construct: purchased Eurofins DiscoverX (KINOMEscan scanEDGE 97)
T6 sequence (P35968 20-1356): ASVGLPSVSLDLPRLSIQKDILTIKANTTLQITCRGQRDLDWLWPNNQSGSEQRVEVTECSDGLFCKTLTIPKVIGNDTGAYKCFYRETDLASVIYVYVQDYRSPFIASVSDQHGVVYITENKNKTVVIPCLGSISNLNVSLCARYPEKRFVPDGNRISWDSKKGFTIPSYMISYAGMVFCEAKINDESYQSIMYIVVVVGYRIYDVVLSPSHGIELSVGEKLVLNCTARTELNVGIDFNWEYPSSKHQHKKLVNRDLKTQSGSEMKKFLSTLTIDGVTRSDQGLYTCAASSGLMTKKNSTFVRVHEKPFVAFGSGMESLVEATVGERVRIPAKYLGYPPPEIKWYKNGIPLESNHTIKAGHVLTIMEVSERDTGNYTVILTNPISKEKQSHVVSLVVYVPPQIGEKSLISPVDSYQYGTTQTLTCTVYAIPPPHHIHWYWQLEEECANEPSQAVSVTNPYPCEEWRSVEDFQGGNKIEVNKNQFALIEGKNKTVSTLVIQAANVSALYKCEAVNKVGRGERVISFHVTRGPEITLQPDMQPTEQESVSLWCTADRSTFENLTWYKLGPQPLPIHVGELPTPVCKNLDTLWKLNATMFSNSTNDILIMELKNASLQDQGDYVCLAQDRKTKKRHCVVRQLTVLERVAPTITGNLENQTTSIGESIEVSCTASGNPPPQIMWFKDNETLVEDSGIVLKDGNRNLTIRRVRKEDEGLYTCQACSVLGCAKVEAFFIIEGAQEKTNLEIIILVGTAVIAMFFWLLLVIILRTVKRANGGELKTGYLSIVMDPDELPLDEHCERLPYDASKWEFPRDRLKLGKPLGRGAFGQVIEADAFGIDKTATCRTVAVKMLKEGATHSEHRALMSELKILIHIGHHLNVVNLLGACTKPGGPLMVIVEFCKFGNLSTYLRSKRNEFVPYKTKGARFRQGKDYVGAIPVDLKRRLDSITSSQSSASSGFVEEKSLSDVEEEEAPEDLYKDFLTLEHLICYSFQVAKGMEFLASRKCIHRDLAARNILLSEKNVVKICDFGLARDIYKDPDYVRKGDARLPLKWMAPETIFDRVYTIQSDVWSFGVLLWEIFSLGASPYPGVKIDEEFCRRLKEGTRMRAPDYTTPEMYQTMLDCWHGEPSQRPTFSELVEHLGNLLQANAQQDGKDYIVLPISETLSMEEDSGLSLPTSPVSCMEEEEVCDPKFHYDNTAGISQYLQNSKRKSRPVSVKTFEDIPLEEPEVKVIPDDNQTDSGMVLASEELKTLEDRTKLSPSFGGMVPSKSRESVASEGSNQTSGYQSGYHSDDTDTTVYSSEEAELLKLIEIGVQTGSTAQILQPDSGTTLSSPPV
Procedure: as §1, §2, §3

PLK4 = molecular target: T7, PLK4 (Homo sapiens, UniProt O00444); experiment: KINOMEscan competition binding; details: OR0642 1 µM; read-out: %Control
T7 construct: purchased Eurofins DiscoverX (KINOMEscan scanEDGE 97)
Procedure: as §1, §2, §3

ROCK2 = molecular target: T8, ROCK2 (Homo sapiens, UniProt O75116); experiment: KINOMEscan competition binding; details: OR0642 1 µM; read-out: %Control
T8 construct: purchased Eurofins DiscoverX (KINOMEscan scanEDGE 97)
Procedure: as §1, §2, §3

[2] = molecular target: T9, JAK2(JH1domain-catalytic) (Homo sapiens, UniProt O60674); experiment: KINOMEscan competition binding; details: OR0642 1 µM; read-out: %Control
T9 construct: JAK2(JH1domain-catalytic); purchased Eurofins DiscoverX (KINOMEscan scanEDGE 97)
Procedure: as §1, §2, §3

TIE2 = molecular target: T10, TIE2 (Homo sapiens, UniProt Q02763); experiment: KINOMEscan competition binding; details: OR0642 1 µM; read-out: %Control
T10 construct: purchased Eurofins DiscoverX (KINOMEscan scanEDGE 97)
T10 sequence (Q02763 23-1124): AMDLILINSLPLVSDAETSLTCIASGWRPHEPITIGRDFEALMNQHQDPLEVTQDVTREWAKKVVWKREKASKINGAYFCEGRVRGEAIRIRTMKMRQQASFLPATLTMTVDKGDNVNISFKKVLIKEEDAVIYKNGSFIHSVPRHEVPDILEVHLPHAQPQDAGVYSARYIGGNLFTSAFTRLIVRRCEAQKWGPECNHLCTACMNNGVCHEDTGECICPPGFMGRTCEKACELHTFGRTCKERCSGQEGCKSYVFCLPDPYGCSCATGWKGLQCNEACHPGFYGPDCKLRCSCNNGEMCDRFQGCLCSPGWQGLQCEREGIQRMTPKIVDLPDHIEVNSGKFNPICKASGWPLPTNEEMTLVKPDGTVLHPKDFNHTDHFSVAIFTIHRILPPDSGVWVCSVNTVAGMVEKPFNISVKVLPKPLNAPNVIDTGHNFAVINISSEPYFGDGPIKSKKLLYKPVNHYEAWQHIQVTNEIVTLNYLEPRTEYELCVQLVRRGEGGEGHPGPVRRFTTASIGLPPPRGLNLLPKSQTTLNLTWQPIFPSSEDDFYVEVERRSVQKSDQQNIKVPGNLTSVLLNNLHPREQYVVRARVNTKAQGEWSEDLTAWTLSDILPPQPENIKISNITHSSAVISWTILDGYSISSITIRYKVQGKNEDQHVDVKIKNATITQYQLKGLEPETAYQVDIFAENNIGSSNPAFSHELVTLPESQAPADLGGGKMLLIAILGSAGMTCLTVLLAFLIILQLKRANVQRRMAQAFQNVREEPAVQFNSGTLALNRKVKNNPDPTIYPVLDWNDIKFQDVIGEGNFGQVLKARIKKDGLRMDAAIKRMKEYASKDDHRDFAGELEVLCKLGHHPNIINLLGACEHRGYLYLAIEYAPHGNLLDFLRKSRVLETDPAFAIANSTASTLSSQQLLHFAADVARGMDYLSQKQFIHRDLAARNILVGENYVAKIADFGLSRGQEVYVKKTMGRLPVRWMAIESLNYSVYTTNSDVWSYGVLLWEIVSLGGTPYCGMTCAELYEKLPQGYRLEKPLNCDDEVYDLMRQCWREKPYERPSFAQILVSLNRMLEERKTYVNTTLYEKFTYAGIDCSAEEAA
Procedure: as §1, §2, §3

RIOK2 = molecular target: T11, RIOK2 (Homo sapiens, UniProt Q9BVS4); experiment: KINOMEscan competition binding; details: OR0642 1 µM; read-out: %Control
T11 construct: purchased Eurofins DiscoverX (KINOMEscan scanEDGE 97)
Procedure: as §1, §2, §3

ABL1-nonphosphorylated = molecular target: T12, ABL1-nonphosphorylated (Homo sapiens, UniProt P00519); experiment: KINOMEscan competition binding; details: OR0642 1 µM; read-out: %Control
T12 construct: purchased Eurofins DiscoverX (KINOMEscan scanEDGE 97)
Procedure: as §1, §2, §3

PAK4 = molecular target: T13, PAK4 (Homo sapiens, UniProt O96013); experiment: KINOMEscan competition binding; details: OR0642 1 µM; read-out: %Control
T13 construct: purchased Eurofins DiscoverX (KINOMEscan scanEDGE 97)
Procedure: as §1
(§4) Supplementary Table 3. KINOMEscan™ Profiling of OR0642. Competition binding assay to
(§5) quantitatively measure interactions between OR0642 (1 µM) and 97 human kinases and disease
(§6) relevant mutant variants.

IGF1R = molecular target: T14, IGF1R (Homo sapiens, UniProt P08069); experiment: KINOMEscan competition binding; details: OR0642 1 µM; read-out: %Control
T14 construct: purchased Eurofins DiscoverX (KINOMEscan scanEDGE 97)
Procedure: as §1, §4, §5, §6

EGFR = molecular target: T15, EGFR (Homo sapiens, UniProt P00533); experiment: KINOMEscan competition binding; details: OR0642 1 µM; read-out: %Control
T15 construct: purchased Eurofins DiscoverX (KINOMEscan scanEDGE 97)
Procedure: as §1, §4, §5, §6

FGFR2 = molecular target: T16, FGFR2 (Homo sapiens, UniProt P21802); experiment: KINOMEscan competition binding; details: OR0642 1 µM; read-out: %Control
T16 construct: purchased Eurofins DiscoverX (KINOMEscan scanEDGE 97)
Procedure: as §1, §4, §5, §6

PDGFRB = molecular target: T17, PDGFRB (Homo sapiens, UniProt P09619); experiment: KINOMEscan competition binding; details: OR0642 1 µM; read-out: %Control
T17 construct: purchased Eurofins DiscoverX (KINOMEscan scanEDGE 97)
Procedure: as §1, §4, §5, §6

PDGFRA = molecular target: T18, PDGFRA (Homo sapiens, UniProt P16234); experiment: KINOMEscan competition binding; details: OR0642 1 µM; read-out: %Control
T18 construct: purchased Eurofins DiscoverX (KINOMEscan scanEDGE 97)
Procedure: as §1, §4, §5, §6

KIT(D816V) = molecular target: T19, KIT(D816V) (Homo sapiens, UniProt P10721, D816V); experiment: KINOMEscan competition binding; details: OR0642 1 µM; read-out: %Control
T19 construct: purchased Eurofins DiscoverX (KINOMEscan scanEDGE 97)
Procedure: as §1, §4, §5, §6

JNK3 = molecular target: T20, JNK3 (Homo sapiens, UniProt P53779); experiment: KINOMEscan competition binding; details: OR0642 1 µM; read-out: %Control
T20 construct: purchased Eurofins DiscoverX (KINOMEscan scanEDGE 97)
Procedure: as §1, §4, §5, §6

MARK3 = molecular target: T21, MARK3 (Homo sapiens, UniProt P27448); experiment: KINOMEscan competition binding; details: OR0642 1 µM; read-out: %Control
T21 construct: purchased Eurofins DiscoverX (KINOMEscan scanEDGE 97)
T21 sequence (P27448 whole entry): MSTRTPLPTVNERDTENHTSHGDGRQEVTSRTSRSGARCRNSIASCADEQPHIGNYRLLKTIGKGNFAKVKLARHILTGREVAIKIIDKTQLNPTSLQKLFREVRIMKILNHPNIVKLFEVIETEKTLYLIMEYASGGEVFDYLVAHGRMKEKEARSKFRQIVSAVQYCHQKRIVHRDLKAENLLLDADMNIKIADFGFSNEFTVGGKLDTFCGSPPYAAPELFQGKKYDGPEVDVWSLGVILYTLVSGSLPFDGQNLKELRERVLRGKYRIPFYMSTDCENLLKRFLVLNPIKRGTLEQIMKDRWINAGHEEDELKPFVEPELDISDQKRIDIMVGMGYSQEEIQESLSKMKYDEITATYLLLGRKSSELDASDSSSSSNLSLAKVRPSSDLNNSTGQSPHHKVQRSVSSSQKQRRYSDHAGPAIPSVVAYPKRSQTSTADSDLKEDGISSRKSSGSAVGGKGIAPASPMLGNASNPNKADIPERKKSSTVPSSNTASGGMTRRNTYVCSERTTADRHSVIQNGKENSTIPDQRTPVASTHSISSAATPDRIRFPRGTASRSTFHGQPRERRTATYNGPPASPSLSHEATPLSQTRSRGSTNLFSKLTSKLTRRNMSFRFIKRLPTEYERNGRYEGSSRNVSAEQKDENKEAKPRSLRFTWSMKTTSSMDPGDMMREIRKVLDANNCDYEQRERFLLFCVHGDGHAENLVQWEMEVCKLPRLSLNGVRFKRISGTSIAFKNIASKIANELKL
Procedure: as §1, §4, §5, §6

DCAMKL1 = molecular target: T22, DCAMKL1 (Homo sapiens, UniProt O15075); experiment: KINOMEscan competition binding; details: OR0642 1 µM; read-out: %Control
T22 construct: purchased Eurofins DiscoverX (KINOMEscan scanEDGE 97)
T22 sequence (O15075 whole entry): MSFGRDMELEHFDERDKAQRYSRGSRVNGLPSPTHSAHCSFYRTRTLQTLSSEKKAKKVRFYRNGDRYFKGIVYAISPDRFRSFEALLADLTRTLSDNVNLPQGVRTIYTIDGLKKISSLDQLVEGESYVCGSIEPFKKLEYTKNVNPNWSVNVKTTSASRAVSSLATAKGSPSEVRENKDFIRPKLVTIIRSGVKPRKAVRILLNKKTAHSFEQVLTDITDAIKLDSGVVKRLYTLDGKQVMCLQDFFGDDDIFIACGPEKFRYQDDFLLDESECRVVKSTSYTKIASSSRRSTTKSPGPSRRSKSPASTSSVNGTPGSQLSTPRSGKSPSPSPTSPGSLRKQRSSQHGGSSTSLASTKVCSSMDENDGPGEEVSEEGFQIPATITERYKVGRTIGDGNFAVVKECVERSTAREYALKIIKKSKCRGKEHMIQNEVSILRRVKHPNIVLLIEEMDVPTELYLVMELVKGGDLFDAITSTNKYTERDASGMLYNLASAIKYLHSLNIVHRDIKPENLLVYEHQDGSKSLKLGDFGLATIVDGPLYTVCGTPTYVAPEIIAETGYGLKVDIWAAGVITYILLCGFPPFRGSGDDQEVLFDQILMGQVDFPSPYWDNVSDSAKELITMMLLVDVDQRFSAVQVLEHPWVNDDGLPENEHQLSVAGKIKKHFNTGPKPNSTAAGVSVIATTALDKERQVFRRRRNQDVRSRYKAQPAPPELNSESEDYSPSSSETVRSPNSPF
Procedure: as §1, §4, §5, §6

CSNK1G2 = molecular target: T23, CSNK1G2 (Homo sapiens, UniProt P78368); experiment: KINOMEscan competition binding; details: OR0642 1 µM; read-out: %Control
T23 construct: purchased Eurofins DiscoverX (KINOMEscan scanEDGE 97)
Procedure: as §1, §4, §5, §6

ERK1 = molecular target: T24, ERK1 (Homo sapiens, UniProt P27361); experiment: KINOMEscan competition binding; details: OR0642 1 µM; read-out: %Control
T24 construct: purchased Eurofins DiscoverX (KINOMEscan scanEDGE 97)
Procedure: as §1, §4, §5, §6

JNK2 = molecular target: T25, JNK2 (Homo sapiens, UniProt P45984); experiment: KINOMEscan competition binding; details: OR0642 1 µM; read-out: %Control
T25 construct: purchased Eurofins DiscoverX (KINOMEscan scanEDGE 97)
Procedure: as §1, §4, §5, §6

ABL1-phosphorylated = molecular target: T26, ABL1-phosphorylated (Homo sapiens, UniProt P00519); experiment: KINOMEscan competition binding; details: OR0642 1 µM; read-out: %Control
T26 construct: purchased Eurofins DiscoverX (KINOMEscan scanEDGE 97)
Procedure: as §1, §4, §5, §6

DYRK1B = molecular target: T27, DYRK1B (Homo sapiens, UniProt Q9Y463); experiment: KINOMEscan competition binding; details: OR0642 1 µM; read-out: %Control
T27 construct: purchased Eurofins DiscoverX (KINOMEscan scanEDGE 97)
T27 sequence (Q9Y463 whole entry): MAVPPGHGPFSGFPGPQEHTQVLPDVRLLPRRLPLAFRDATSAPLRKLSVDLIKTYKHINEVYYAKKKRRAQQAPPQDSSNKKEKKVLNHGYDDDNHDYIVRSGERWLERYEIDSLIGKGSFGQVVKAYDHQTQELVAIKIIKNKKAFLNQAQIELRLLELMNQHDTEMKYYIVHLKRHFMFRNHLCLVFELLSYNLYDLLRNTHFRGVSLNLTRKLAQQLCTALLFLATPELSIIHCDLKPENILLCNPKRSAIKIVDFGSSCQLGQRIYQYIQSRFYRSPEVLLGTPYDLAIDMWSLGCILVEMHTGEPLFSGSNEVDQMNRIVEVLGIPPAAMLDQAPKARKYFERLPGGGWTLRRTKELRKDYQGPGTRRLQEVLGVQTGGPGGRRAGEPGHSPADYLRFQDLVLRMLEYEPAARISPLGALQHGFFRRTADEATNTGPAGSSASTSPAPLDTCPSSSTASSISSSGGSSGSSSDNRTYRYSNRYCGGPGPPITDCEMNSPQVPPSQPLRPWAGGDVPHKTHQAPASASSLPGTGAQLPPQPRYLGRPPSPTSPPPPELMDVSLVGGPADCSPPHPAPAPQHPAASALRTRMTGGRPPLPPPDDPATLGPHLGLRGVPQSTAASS
Procedure: as §1, §4, §5, §6

AXL = molecular target: T28, AXL (Homo sapiens, UniProt P30530); experiment: KINOMEscan competition binding; details: OR0642 1 µM; read-out: %Control
T28 construct: purchased Eurofins DiscoverX (KINOMEscan scanEDGE 97)
Procedure: as §1, §4, §5, §6

CDK7 = molecular target: T29, CDK7 (Homo sapiens, UniProt P50613); experiment: KINOMEscan competition binding; details: OR0642 1 µM; read-out: %Control
T29 construct: purchased Eurofins DiscoverX (KINOMEscan scanEDGE 97)
Procedure: as §1, §4, §5, §6

EPHA2 = molecular target: T30, EPHA2 (Homo sapiens, UniProt P29317); experiment: KINOMEscan competition binding; details: OR0642 1 µM; read-out: %Control
T30 construct: purchased Eurofins DiscoverX (KINOMEscan scanEDGE 97)
Procedure: as §1, §4, §5, §6

ACVR1B = molecular target: T31, ACVR1B (Homo sapiens, UniProt P36896); experiment: KINOMEscan competition binding; details: OR0642 1 µM; read-out: %Control
T31 construct: purchased Eurofins DiscoverX (KINOMEscan scanEDGE 97)
Procedure: as §1, §4, §5, §6

CDK11 = molecular target: T32, CDK11 (Homo sapiens, UniProt Q9BWU1); experiment: KINOMEscan competition binding; details: OR0642 1 µM; read-out: %Control
T32 construct: purchased Eurofins DiscoverX (KINOMEscan scanEDGE 97)
Procedure: as §1, §4, §5, §6

[3] = system: UPNT525 patient-derived xenograft; experiment: T-ALL PDX mouse model UPNT525; assay type: in vivo; design: hCD45+ populations determined by flux cytometry at day 19: unit not given here
Procedure: Temperature was maintained between 20 and 24 °C and the hygrometry between 40 and 60%. Sex was not considered in the study design and studies were realized in male mice, as toxicity and pharmacokinetics were performed previously in male mice. […] OR0642 was administered in its hydrochloride salt form (OR0642-HCl). Drug administration protocol is detailed in Fig. 4a. […] Patient-derived xenograft was generated from a primary-T-ALL (UPNT525) sample[28],[29]. Briefly, we injected 1,000,000 cells in 100 μl of PBS by intravenous (IV) retro orbital injection in NSG mice. […] Drug administration protocol is detailed in Fig. 5d. Disease propagation was monitored at day 19 by hCD45 detection in peripheral blood. […] Figures exemplifying the gating strategy are provided in the Supplementary Information (Supplementary Figs. 32 and 33).

[4] = PDX mouse model UPNT525, dT 1,5 g/Kg, individual mice

Work on `CCCN(c1nc(-c2nc(N)cc(N)n2)cs1)c1cc(-c2ccc(S(=O)(=O)N3CCN(C)CC3)cc2C(F)(F)F)ccc1C` [OR0642] yielded a remaining binding at 1 µM (MAPKAPK2) of 100%, a remaining binding at 1 µM (p38-beta) of 91% and a remaining binding at 1 µM (YANK3) of 97%. For the same compound, the remaining binding at 1 µM [1] was 100%, the remaining binding at 1 µM (PLK3) was 100% and the remaining binding at 1 µM (VEGFR2) was 100%. The remaining binding at 1 µM (PLK4) was 81%, the remaining binding at 1 µM (ROCK2) was 99% and the remaining binding at 1 µM [2] was 100%. For the same compound, the remaining binding at 1 µM (TIE2) was 94%, the remaining binding at 1 µM (RIOK2) was 98% and the remaining binding at 1 µM (ABL1-nonphosphorylated) was 94%. It also gave a remaining binding at 1 µM (PAK4) of 91%, a remaining binding at 1 µM (IGF1R) of 93% and a remaining binding at 1 µM (EGFR) of 82%. For the same compound, the remaining binding at 1 µM (FGFR2) was 89%, the remaining binding at 1 µM (PDGFRB) was 100% and the remaining binding at 1 µM (PDGFRA) was 97%. For the same compound, the remaining binding at 1 µM (KIT(D816V)) was 94%, the remaining binding at 1 µM (JNK3) was 81% and the remaining binding at 1 µM (MARK3) was 100%. For the same compound, the remaining binding at 1 µM (DCAMKL1) was 81%, the remaining binding at 1 µM (CSNK1G2) was 91% and the remaining binding at 1 µM (ERK1) was 86%. It also gave a remaining binding at 1 µM (JNK2) of 84%, a remaining binding at 1 µM (ABL1-phosphorylated) of 99% and a remaining binding at 1 µM (DYRK1B) of 100%. For the same compound, the remaining binding at 1 µM (AXL) was 89%, the remaining binding at 1 µM (CDK7) was 94% and the remaining binding at 1 µM (EPHA2) was 90%. For the same compound, the remaining binding at 1 µM (ACVR1B) was 86% and the remaining binding at 1 µM (CDK11) was 100%.
`Cc1cn([C@H]2C[C@H](O)[C@@H](CO)O2)c(=O)[nH]c1=O` [dT, thymidine] was tested, and the Survival days [3, 4] was 26 days and 38 days and 42 days, the “hCD45+ populations determined by flux cytometry at day 19” value [3, 4] was 164 and 330 and 108 and 177 and 168 and 318 and the median survival ([3]; dT 1.5 g/kg, OR0642 40 mg/kg IP BID 5 days a week) was 38 days. For the same compound, the “effect on disease progression” value ([3]; day 19) was “significant decrease in disease progression”.
